# In PubChem BioAssay AID1963873 (Molecular Pharmacology Branch, DTP, NCI, 2024):
# pIC50: −log10 of the molar value.
# Test system: 276233-004-R-J1-PDC KRAS spheroids with HUVEC/MSC, viability
# Experiment: Anticancer human tumor 276233-004-R-J1-PDC patient-derived colon adenocarcinoma cell line growth inhibition [KRAS2]
# Details: for viability, T/C: stronger effect = lower value; for IC50: compound alone
# In short: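 Combination screen of spheroid viability in tumor-cell co-cultures with endothelial (HUVEC) and mesenchymal stem cell stroma. Each agent was tested in half-log dilutions, topping at clinical Cmax or at 10 microM without a known Cmax.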
# [1] = curve of first compound, second compound 0.1 µM
# [2] = curve of first compound, second compound 0.316 µM
# [3] = curve of first compound, second compound 1 µM
# [4] = curve of first compound, second compound 3.16 µM
# [5] = curve of first compound, second compound 10 µM
# [6] = second compound 0.1 µM, first compound 0.0316 µM
# [7] = second compound 0.316 µM, first compound 0.0316 µM
# [8] = second compound 1 µM, first compound 0.0316 µM
# [9] = second compound 3.16 µM, first compound 0.0316 µM
# [10] = second compound 10 µM, first compound 0.0316 µM
# 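Further: cells exposed to agents for seven days before viability read.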
# 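Wherever viability, T/C is given: 100% = DMSO vehicle control wells and lower values mean fewer viable cells.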
smiles,measurement,setting,value
COc1cc(Nc2ncc3c(n2)-c2ccc(Cl)cc2C(c2c(F)cccc2OC)=NC3)ccc1C(=O)O + COc1cc2nc(C)nc(NC(C)c3cc(N)cc(C(F)(F)F)c3)c2cc1OC1CCOC1,pIC50,[1],< 5.00
same,pIC50,[2],< 5.00
same,pIC50,[3],< 5.00
same,pIC50,[4],< 5.00
same,pIC50,[5],> 7.50
same,"viability, T/C",[6],79.9%
same,"viability, T/C","second compound 0.1 µM, first compound 0.1 µM",78.9%
same,"viability, T/C","second compound 0.1 µM, first compound 0.316 µM",74.3%
same,"viability, T/C","second compound 0.1 µM, first compound 1 µM",68%
same,"viability, T/C","second compound 0.1 µM, first compound 3.16 µM",61.6%
same,"viability, T/C","second compound 0.1 µM, first compound 10 µM",57.1%
same,"viability, T/C",[7],83.3%
same,"viability, T/C","second compound 0.316 µM, first compound 0.1 µM",69.9%
same,"viability, T/C","second compound 0.316 µM, first compound 0.316 µM",70.9%
same,"viability, T/C","second compound 0.316 µM, first compound 1 µM",69.5%
same,"viability, T/C","second compound 0.316 µM, first compound 3.16 µM",67.2%
same,"viability, T/C","second compound 0.316 µM, first compound 10 µM",54.6%
same,"viability, T/C",[8],91.7%
same,"viability, T/C","second compound 1 µM, first compound 0.1 µM",67.4%
same,"viability, T/C","second compound 1 µM, first compound 0.316 µM",63.5%
same,"viability, T/C","second compound 1 µM, first compound 1 µM",68%
same,"viability, T/C","second compound 1 µM, first compound 3.16 µM",58.4%
same,"viability, T/C","second compound 1 µM, first compound 10 µM",55.2%
same,"viability, T/C",[9],70%
same,"viability, T/C","second compound 3.16 µM, first compound 0.1 µM",60.4%
same,"viability, T/C","second compound 3.16 µM, first compound 0.316 µM",56.6%
same,"viability, T/C","second compound 3.16 µM, first compound 1 µM",54.1%
same,"viability, T/C","second compound 3.16 µM, first compound 3.16 µM",74.6%
same,"viability, T/C","second compound 3.16 µM, first compound 10 µM",57.4%
same,"viability, T/C",[10],29.1%
same,"viability, T/C","second compound 10 µM, first compound 0.1 µM",37.9%
same,"viability, T/C","second compound 10 µM, first compound 0.316 µM",30.9%
same,"viability, T/C","second compound 10 µM, first compound 1 µM",21.2%
same,"viability, T/C","second compound 10 µM, first compound 3.16 µM",31.4%
same,"viability, T/C","second compound 10 µM, first compound 10 µM",17.6%
CN(C)C/C=C/C(=O)Nc1cc2c(Nc3ccc(F)c(Cl)c3)ncnc2cc1O[C@H]1CCOC1,"viability, T/C",compound 0.000316 µM,98.5% [middle of 5 runs]
same,"viability, T/C",compound 0.001 µM,92.7% [middle of 5 runs]
same,"viability, T/C",compound 0.00316 µM,90.8% [middle of 5 runs]
same,"viability, T/C",compound 0.01 µM,95.8% [middle of 5 runs]
same,"viability, T/C",compound 0.0316 µM,97.7% [middle of 5 runs]
same,"viability, T/C",compound 0.1 µM,90% [middle of 5 runs]
same,pIC50,curve of compound,< 7.00
CNCc1ccccc1-c1csc(C(C)Nc2nc(C)nc3cc(OC)c(OC)cc23)c1 (stereo not given),"viability, T/C",compound 10 µM,1.13% [middle of 15 runs]
same,IC50,run of 07/19/2021,1.25 µM [middle of 4 runs]
same,IC50,run of 07/26/2021,1.67 µM [middle of 5 runs]
CC(=O)Nc1cccc(-n2c(=O)n(C3CC3)c(=O)c3c(Nc4ccc(I)cc4F)n(C)c(=O)c(C)c32)c1 + C=CC(=O)N1CCN(c2nc(=O)n(-c3c(C)ccnc3C(C)C)c3nc(-c4c(O)cccc4F)c(F)cc23)C(C)C1,pIC50,[1],8.19
same,pIC50,[2],8.02
same,pIC50,[3],8.03
same,pIC50,[4],8.19
same,pIC50,[5],8.61
same,"viability, T/C","second compound 0.1 µM, first compound 0.0001 µM",89.9%
same,"viability, T/C","second compound 0.1 µM, first compound 0.000316 µM",97.5%
same,"viability, T/C","second compound 0.1 µM, first compound 0.001 µM",85.7%
same,"viability, T/C","second compound 0.1 µM, first compound 0.00316 µM",58.9%
same,"viability, T/C","second compound 0.1 µM, first compound 0.01 µM",45.4%
same,"viability, T/C",[6],21.3%
same,"viability, T/C","second compound 0.316 µM, first compound 0.0001 µM",87.1%
same,"viability, T/C","second compound 0.316 µM, first compound 0.000316 µM",84.9%
same,"viability, T/C","second compound 0.316 µM, first compound 0.001 µM",76.9%
same,"viability, T/C","second compound 0.316 µM, first compound 0.00316 µM",74%
same,"viability, T/C","second compound 0.316 µM, first compound 0.01 µM",47.9%
same,"viability, T/C",[7],18.6%
same,"viability, T/C","second compound 1 µM, first compound 0.0001 µM",102%
same,"viability, T/C","second compound 1 µM, first compound 0.000316 µM",85.5%
same,"viability, T/C","second compound 1 µM, first compound 0.001 µM",80%
same,"viability, T/C","second compound 1 µM, first compound 0.00316 µM",71.9%
same,"viability, T/C","second compound 1 µM, first compound 0.01 µM",49.5%
same,"viability, T/C",[8],19.4%
same,"viability, T/C","second compound 3.16 µM, first compound 0.0001 µM",75.2%
same,"viability, T/C","second compound 3.16 µM, first compound 0.000316 µM",96.3%
same,"viability, T/C","second compound 3.16 µM, first compound 0.001 µM",65.8%
same,"viability, T/C","second compound 3.16 µM, first compound 0.00316 µM",59.5%
same,"viability, T/C","second compound 3.16 µM, first compound 0.01 µM",45.9%
same,"viability, T/C",[9],24.2%
same,"viability, T/C","second compound 10 µM, first compound 0.0001 µM",74.2%
same,"viability, T/C","second compound 10 µM, first compound 0.000316 µM",73%
same,"viability, T/C","second compound 10 µM, first compound 0.001 µM",57.6%
same,"viability, T/C","second compound 10 µM, first compound 0.00316 µM",45.4%
same,"viability, T/C","second compound 10 µM, first compound 0.01 µM",36.8%
same,"viability, T/C",[10],21.3%
